Data as given in paper PMC12514245, “Impaired migration and lung invasion of human melanoma by a novel small molecule targeting the transmembrane domain of death receptor p75^NTR” (EMBO Molecular Medicine, 2025).
Several values for one entry are separate records, joined by “and”; a condition that tells them apart may be missing. Equal entries are not always repeated. Where two headings read alike, the source gives them in different places.

Tests used:
[1] = test system: A875 melanoma cells (NT); test: Cleaved PARP western blot (apoptosis), A875 NT; format: cell-based, human
Procedure: One of the main biological readouts of p75^NTR activity in response to neurotrophins is the induction of caspase-mediated apoptotic cell death (Underwood and Coulson, [2008]; Friedman, [2010]; Ibáñez and Simi, [2012]).
COS7, A875 and WM115 cell lines were cultured under standard conditions in DMEM supplemented with 10% fetal calf serum, 100 units/ml penicillin, […] streptomycin, and 2.5 mM glutamine. All cells were authenticated and tested for mycoplasma contamination. A875-NT (control) and A875 shp75 (knockdown) cell lines were described previously (Goh et al, [2018]).

[2] = target: T1, Matrix-2 protein (M2) TMD (Influenza A virus, UniProt P06821); format: cell-based; settings: for GFP/OD630, M2, mean: N=3
T1 construct: unrelated TMDs from α2β3 integrin and Matrix-2 protein (M2); expressed in transfected cells
T1 sequence (P06821 23-43 limits assumed): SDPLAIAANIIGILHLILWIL

[3] = target: T2, p75^NTR TMD P253G (Homo sapiens, UniProt P08138, P253G); test: AraTM assay, P253G mutant p75NTR TMD; format: cell-based; settings: for GFP/OD630, p75NTR P253G, Mean: N=3; for GFP/OD630, Mean / GFP/OD630, individual replicates: P253G;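 on GFP/OD630, p75NTR P253G, Mean: 100% is GFP/OD630 of wild-type p75NTR TMD without drug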;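 on GFP/OD630, p75NTR P253G, n1-n3: 100% is GFP/OD630 of wild-type p75NTR TMD without drug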
T2 construct: Comparison of wild-type (WT) p75^NTR TMD and I252A, P253G and V254A mutants in the AraTM assay; expressed in transfected cells; host or cells: E. coli AS19 (LPS-negative)
T2 sequence (P08138 251-272 P253G limits assumed): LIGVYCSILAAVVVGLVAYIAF

[4] = test system: human 70W cells; test: Lung invasion after intravenous injection of 70W cells; settings: 70W cells lose p75ntr expression in vivo
Procedure: A875 NT cells that both wound areas decreased from 1 to ~0.75 in 24 hours. But in […]
Do the in vitro assays recapitulate melanoma invasiveness? If not, is it possible the ideal compounds were missed from the screening in melanoma cells (Figure 6)? […] This assay simply scores the relative orientation/conformation of the interacting receptor TMDs in isolation form the rest of the receptor. The wound healing assay is a rather simplistic assay of cell motility. The in vitro assay that better recapitulates what may happen in vivo is the Boyden chamber migration/invasion assay.
2. In Figure 7A, co-IP experiment requires input and IgG control to show positivity and specificity. In Figure 7B, quantification using the ratio of Triton-insoluble fascin to total fascin will be much more solid than only showing the western blot.
The input control was added in 7A and quantification in 7B (also in 7A).
"NGF treatment strongly stimulated the association of fascin with p75NTR".
The labels in the Western blot shown in this panel were incorrect. They have now been […]
4. Validation of results in another human cell line
During the past year, multiple tests were done by intravenous injection of human 70W cells, […]
followed by monitoring cells in the lungs in the presence and absence of drug treatment. […]
in vivo environment. […]

[5] = test system: A875 shp75 cells; test: Filopodia per cell (phalloidin staining), A875 shp75; format: cell-based, human; settings: for filopodia per cell (mean of 3 experiments) / filopodia per cell (mean of one experiment): A875 shp75; for filopodia per cell (mean of one experiment): EXP1-EXP3
Procedure: For assessment of actin filaments, A875 cells were plated on glass coverslips in 24-well plate at a confluency of 3 × 10^4 cells/well. One day after plating, the cells were treated with 1 μM or 5 μM Np75-4A22 and NGF (100 ng/ml) or PBS for 24 h. Cells were fixed in 4% paraformaldehyde, permeabilized in 0.1% Triton-X-100, stained with Phalloidin-iFluor 488 (Abcam) at 1:2000 dilution and DAPI for 1 h. Coverslips were mounted and visualized in a laser confocal microscope.

[6] = A875 shp75, EXP3, 1 uM 4A22 + 100 ng/ml NGF
[7] = A875 shp75 cells, EXP1, 1 uM 4A22, wells 1-4
[8] = A875 shp75 cells, EXP1, 5 uM 4A22 + 100 ng/ml NGF, wells 1-4
[9] = A875 shp75 cells, EXP2, 1 uM 4A22 + 100 ng/ml NGF, wells 1-4
[10] = A875 shp75 cells, EXP2, 5 uM 4A22 + 100 ng/ml NGF, wells 1-4
[11] = A875 shp75 cells, EXP2, 5 uM 4A22, wells 1-4

Oc1ccc(-c2cncc(Nc3ccc(Br)c(Cl)c3)n2)cc1 [Div17E5]
apoptosis (cleavage of PARP) [1]: induced apoptosis
Cleaved PARP normalized to DMSO, individual replicates ([1]; 0.5uM): 2.699 and 3.180 and 5.109
Cleaved PARP/actin, individual replicates ([1]; 0.5uM): 0.023 and 0.026 and 0.037
Cleaved PARP normalized to DMSO, Average ([1]; 0.5μM): 3.662
Cleaved PARP normalized to DMSO, individual replicates ([1]; 1uM): 10.573 and 9.243 and 5.315
Cleaved PARP/actin, individual replicates ([1]; 1uM): 0.078 and 0.043 and 0.077
Cleaved PARP normalized to DMSO, Average ([1]; 1μM): 8.377
Cleaved PARP normalized to DMSO, individual replicates ([1]; 2uM): 25.774 and 23.617 and 17.703
Cleaved PARP/actin, individual replicates ([1]; 2uM): 0.187 and 0.200 and 0.142
Cleaved PARP normalized to DMSO, Average ([1]; 2μM): 22.365
Cleaved PARP normalized to DMSO, individual replicates ([1]; 5uM): 31.874 and 36.234 and 27.415
Cleaved PARP/actin, individual replicates ([1]; 5uM): 0.231 and 0.306 and 0.220
Cleaved PARP normalized to DMSO, Average ([1]; 5μM): 31.841
GFP/OD630, M2, single replicates ([2]; Div17E5 1 μM): 96 and 90 and 113
GFP/OD630, M2, mean ([2]; Div17E5 1 μM): 100
GFP/OD630, M2, single replicates ([2]; Div17E5 2.5 μM): 94 (2×) and 111
GFP/OD630, M2, mean ([2]; Div17E5 2.5 μM): 100
GFP/OD630, M2, single replicates ([2]; Div17E5 5 μM): 89 and 109 and 92
GFP/OD630, M2, mean ([2]; Div17E5 5 μM): 97
GFP/OD630, M2, single replicates ([2]; Div17E5 10 μM): 90 and 105 and 99
GFP/OD630, M2, mean ([2]; Div17E5 10 μM): 98
GFP/OD630, M2, single replicates ([2]; Div17E5 20 μM): 109 and 89 and 98
GFP/OD630, M2, mean ([2]; Div17E5 20 μM): 99
GFP/OD630, M2, single replicates ([2]; Div17E5 50 μM): 112 and 92 and 109
GFP/OD630, M2, mean ([2]; Div17E5 50 μM): 104
effect of Pro253 mutation on compound activity in AraTM assay [3]: had no effect
GFP/OD630, p75NTR P253G, n1-n3 ([3]; Div17E5 7.5 uM): 62% and 68% and 61%
GFP/OD630, p75NTR P253G, Mean ([3]; Div17E5 7.5 uM): 64%
GFP/OD630, p75NTR P253G, n1-n3 ([3]; Div17E5 15 uM): 61% and 77% and 66%
GFP/OD630, p75NTR P253G, Mean ([3]; Div17E5 15 uM): 68%
GFP/OD630, p75NTR P253G, n1-n3 ([3]; Div17E5 20 uM): 59% and 49% and 56%
GFP/OD630, p75NTR P253G, Mean ([3]; Div17E5 20 uM): 55%
GFP/OD630, p75NTR P253G, n1-n3 ([3]; Div17E5 50 uM): 57% and 56% and 59%
GFP/OD630, p75NTR P253G, Mean ([3]; Div17E5 50 uM): 57%

Cc1cccc(-c2cncc(Nc3ccc(Br)c(Cl)c3Cl)n2)c1C [Np75-4A22]
number of metastasized 70W cells in the lungs [4]: had no effect on the number of metastasized cells
Cleaved PARP normalized to DMSO, individual replicates ([1]; 0.5uM): 5.004 and 2.098 and 0.920
Cleaved PARP/actin, individual replicates ([1]; 0.5uM): 0.036 and 0.018 and 0.00739
Cleaved PARP normalized to DMSO, Average ([1]; 0.5μM): 2.674
Cleaved PARP normalized to DMSO, individual replicates ([1]; 1uM): 1.063 and 1.446 and 0.643
Cleaved PARP/actin, individual replicates ([1]; 1uM): 0.008 and 0.012 and 0.005
Cleaved PARP normalized to DMSO, Average ([1]; 1μM): 1.051
Cleaved PARP normalized to DMSO, individual replicates ([1]; 2uM): 0.550 and 3.611 and 2.270
Cleaved PARP/actin, individual replicates ([1]; 2uM): 0.004 and 0.031 and 0.018
Cleaved PARP normalized to DMSO, Average ([1]; 2μM): 2.144
Cleaved PARP normalized to DMSO, individual replicates ([1]; 5uM): 1.726 and 2.128 and 2.224
Cleaved PARP/actin, individual replicates ([1]; 5uM): 0.013 and 0.018
Cleaved PARP normalized to DMSO, Average ([1]; 5μM): 2.026
apoptosis (PARP cleavage) ([1]; submicromolar and low micromolar range (0.5 to 5 µM)): did not induce apoptosis
filopodia per cell, compound alone ([5]; 1 or 5 μM): no effects per se
filopodia per cell (single image) [5, 6]: 35
filopodia per cell (well mean) [5, 6]: 35.0833 and 29.3333 and 46.5 and 31.1667
filopodia per cell (single image) ([5]; A875 shp75, EXP3, 5 uM 4A22): 35
filopodia per cell (well mean) ([5]; A875 shp75, EXP3, 5 uM 4A22): 26.25 and 40.3333 and 46.1111 and 41.3333
filopodia per cell (well mean) ([5]; A875 shp75, EXP3, 5 uM 4A22 + 100 ng/ml NGF): 35.1667 and 32.8333 and 43.3889 and 37.5
filopodia per cell (mean of 3 experiments) ([5]; 100ng/ml NGF&1uM 4A22): 37.2384
filopodia per cell (mean of one experiment) ([5]; 100ng/ml NGF&1uM 4A22): 38.132 and 38.0625 and 35.5208
filopodia per cell (mean of 3 experiments) ([5]; 100ng/ml NGF&5uM 4A22): 37.6510
filopodia per cell (mean of one experiment) ([5]; 100ng/ml NGF&5uM 4A22): 35.6615 and 40.0695 and 37.2222
filopodia per cell (mean of 3 experiments) ([5]; 1uM 4A22): 34.8819
filopodia per cell (mean of one experiment) ([5]; 1uM 4A22): 30.6458 and 39.4583 and 34.5417
filopodia per cell (mean of 3 experiments) ([5]; 5uM 4A22): 36.6829
filopodia per cell (mean of one experiment) ([5]; 5uM 4A22): 35.8958 and 35.6458 and 38.5069
filopodia per cell (well mean) ([5]; A875 shp75 cells, EXP1, 1 uM 4A22 + 100 ng/ml NGF, wells 1-4): 34.0833 and 42.6667 and 40.1111 and 35.6667
filopodia per cell (single image) [5, 7]: 35
filopodia per cell (well mean) [5, 7]: 28.25 and 31.6667 and 30.4167 and 32.25
filopodia per cell (single image) [5, 8]: 35
filopodia per cell (well mean) [5, 8]: 38.8333 and 30.1667 and 37.3125 and 36.3333
filopodia per cell (well mean) ([5]; A875 shp75 cells, EXP1, 5 uM 4A22, wells 1-4): 36.5 and 34.5 and 32.75 and 39.8333
filopodia per cell (single image) [5, 9]: 35
filopodia per cell (well mean) [5, 9]: 43.1667 and 38 and 39.3333 and 31.75
filopodia per cell (well mean) ([5]; A875 shp75 cells, EXP2, 1 uM 4A22, wells 1-4): 35.6667 and 37.1667 and 36.6667 and 48.3333
filopodia per cell (single image) [5, 10]: 35
filopodia per cell (well mean) [5, 10]: 43.6667 and 38.1667 and 45.6111 and 32.8333
filopodia per cell (single image) [5, 11]: 35
filopodia per cell (well mean) [5, 11]: 36.5 and 31 and 38.1667 and 36.9167
effect of Pro253 mutation on compound activity in AraTM assay [3]: unaffected
GFP/OD630, Mean ([3]; compound 5 μM): 0.71
GFP/OD630, individual replicates ([3]; compound 5 μM): 0.58 and 0.64 and 0.9
GFP/OD630, Mean ([3]; compound 10 μM): 0.74
GFP/OD630, individual replicates ([3]; compound 10 μM): 0.6 and 0.87 and 0.74
GFP/OD630, Mean ([3]; compound 20 μM): 0.58
GFP/OD630, individual replicates ([3]; compound 20 μM): 0.43 and 0.66 (2×)
GFP/OD630, Mean ([3]; compound 30 μM): 0.52
GFP/OD630, individual replicates ([3]; compound 30 μM): 0.72 and 0.32 and 0.53
GFP/OD630, Mean ([3]; compound 40 μM): 0.39
GFP/OD630, individual replicates ([3]; compound 40 μM): 0.36 (2×) and 0.44
